In ChEMBL document CHEMBL1201862, “PubChem BioAssay data set” (2004):
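Five compound concentrations were applied to cells in 96-well plates for 48 hours; endpoints were derived by simple linear interpolation of the resulting dose-response curve. At the GI50, growth is halved.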 The source made the active and inactive calls. Cut-off read from the data, not from the text of the source: active = GI50 up to about 1.1 µM and inactive = higher.

Legend:
Assay in all cases: NCI anticancer screen, dose series, 48 h
K562 = system: K562
LOX IMVI = system: LOX IMVI
SW-620 = system: SW-620
SR = system: SR
Malme-3M = system: Malme-3M
UO-31 = system: UO-31
CCRF-CEM = system: CCRF-CEM
UACC-257 = system: UACC-257
RPMI-8226 = system: RPMI-8226
HL-60 = system: HL-60
SF-295 = system: SF-295
IGROV-1 = system: IGROV-1
OVCAR-5 = system: OVCAR-5
COLO 205 = system: COLO 205
786-0 = system: 786-0
OVCAR-8 = system: OVCAR-8
SK-MEL-2 = system: SK-MEL-2
A498 = system: A498
LXFL 529 = system: LXFL 529
SK-OV-3 = system: SK-OV-3
UACC-62 = system: UACC-62
U-251 = system: U-251
CAKI-1 = system: CAKI-1
OVCAR-3 = system: OVCAR-3
SF-268 = system: SF-268
SK-MEL-5 = system: SK-MEL-5
ACHN = system: ACHN
SK-MEL-28 = system: SK-MEL-28
A549 = system: A549
NCI-H23 = system: NCI-H23
SN12C = system: SN12C
SNB-19 = system: SNB-19
OVCAR-4 = system: OVCAR-4
NCI-H522 = system: NCI-H522
SF-539 = system: SF-539
DLD-1 = system: DLD-1
HCT-116 = system: HCT-116
HOP-62 = system: HOP-62
HCC 2998 = system: HCC 2998
SNB-75 = system: SNB-75
DMS-273 = system: DMS-273
MOLT-4 = system: MOLT-4
TK-10 = system: TK-10
NCI-H226 = system: NCI-H226
KM12 = system: KM12
M14 = system: M14
DMS-114 = system: DMS-114
HT-29 = system: HT-29
EKVX = system: EKVX
NCI-H460 = system: NCI-H460
HCT-15 = system: HCT-15
NCI/ADR-RES = system: NCI/ADR-RES
SNB-78 = system: SNB-78
KM-20L2 = system: KM-20L2
MCF7 = system: MCF7
HOP-92 = system: HOP-92

CCOC(=O)C(NC(=O)c1ccc(/N=N/N(C)C)cc1)C(C)C (centres undefined)
GI50 (K562): > 100 µM (inactive) | GI50 (LOX IMVI): > 100 µM (inactive) | GI50 (SW-620): > 100 µM (inactive) | GI50 (SR): > 100 µM (inactive) | GI50 (Malme-3M): > 100 µM (inactive) | GI50 (UO-31): > 100 µM (inactive) | GI50 (CCRF-CEM): > 100 µM (inactive) | GI50 (UACC-257): > 100 µM (inactive) | GI50 (RPMI-8226): > 100 µM (inactive) | GI50 (HL-60): > 100 µM (inactive) | GI50 (SF-295): > 100 µM (inactive) | GI50 (IGROV-1): > 100 µM (inactive) | GI50 (OVCAR-5): > 100 µM (inactive) | GI50 (COLO 205): > 100 µM (inactive) | GI50 (786-0): > 100 µM (inactive) | GI50 (OVCAR-8): > 100 µM (inactive) | GI50 (SK-MEL-2): > 100 µM (inactive) | GI50 (A498): > 100 µM (inactive) | GI50 (LXFL 529): > 100 µM (inactive) | GI50 (SK-OV-3): > 100 µM (inactive) | GI50 (UACC-62): > 100 µM (inactive) | GI50 (U-251): 31 µM (inactive) | GI50 (CAKI-1): > 100 µM (inactive) | GI50 (OVCAR-3): > 100 µM (inactive) | GI50 (SF-268): > 100 µM (inactive) | GI50 (SK-MEL-5): > 100 µM (inactive) | GI50 (ACHN): > 100 µM (inactive) | GI50 (SK-MEL-28): > 100 µM (inactive) | GI50 (A549): > 100 µM (inactive) | GI50 (NCI-H23): > 100 µM (inactive) | GI50 (SN12C): > 100 µM (inactive) | GI50 (SNB-19): > 100 µM (inactive) | GI50 (OVCAR-4): > 100 µM (inactive) | GI50 (NCI-H522): > 100 µM (inactive) | GI50 (SF-539): > 100 µM (inactive) | GI50 (DLD-1): > 100 µM (inactive) | GI50 (HCT-116): > 100 µM (inactive) | GI50 (HOP-62): > 100 µM (inactive) | GI50 (HCC 2998): > 100 µM (inactive) | GI50 (SNB-75): > 100 µM (inactive) | GI50 (DMS-273): > 100 µM (inactive) | GI50 (MOLT-4): > 100 µM (inactive) | GI50 (TK-10): 54.2 µM (inactive) | GI50 (NCI-H226): > 100 µM (inactive) | GI50 (KM12): > 100 µM (inactive) | GI50 (M14): > 100 µM (inactive) | GI50 (DMS-114): > 100 µM (inactive) | GI50 (HT-29): > 100 µM (inactive) | GI50 (EKVX): > 100 µM (inactive) | GI50 (NCI-H460): > 100 µM (inactive) | GI50 (HCT-15): > 100 µM

COC(=O)C1C(O)C(C)C(O)C(C)/C=C\C=C(C)C(=O)Nc2c(C)c(OC(C)=O)c3c(c2O)C(=O)C(C)=C2OCOC(=C23)C(C)=CC(C)(O)C(O)C(C)C1O (centres undefined)
GI50 (NCI/ADR-RES): 56.9 µM (inactive) | GI50 (SNB-78): 41.4 µM (inactive) | GI50 (KM-20L2): 34 µM (inactive) | GI50 (SW-620): 25 µM (inactive) | GI50 (MCF7): 20.1 µM (inactive) | GI50 (Malme-3M): 45.4 µM (inactive) | GI50 (UO-31): 72.6 µM (inactive) | GI50 (UACC-257): 32.1 µM (inactive) | GI50 (HL-60): 18.7 µM (inactive) | GI50 (SF-295): 62.5 µM (inactive) | GI50 (IGROV-1): > 75 µM (inactive) | GI50 (OVCAR-5): > 75 µM (inactive) | GI50 (COLO 205): 17.4 µM (inactive) | GI50 (OVCAR-8): 28.6 µM (inactive) | GI50 (SK-MEL-2): 18.1 µM (inactive) | GI50 (A498): 63.1 µM (inactive) | GI50 (SK-OV-3): > 75 µM (inactive) | GI50 (U-251): 60.4 µM (inactive) | GI50 (CAKI-1): 33.7 µM (inactive) | GI50 (OVCAR-3): 42.4 µM (inactive) | GI50 (SF-268): 43.9 µM (inactive) | GI50 (SK-MEL-5): 40 µM (inactive) | GI50 (SK-MEL-28): 26.6 µM (inactive) | GI50 (SNB-19): > 75 µM (inactive) | GI50 (SF-539): > 60.5 µM (inactive) | GI50 (DLD-1): 18.3 µM (inactive) | GI50 (HCT-116): 26.4 µM (inactive) | GI50 (HOP-62): > 75 µM (inactive) | GI50 (DMS-273): 52.6 µM (inactive) | GI50 (NCI-H226): 61.7 µM (inactive) | GI50 (DMS-114): 19.7 µM (inactive) | GI50 (HT-29): 21.7 µM (inactive) | GI50 (HOP-92): 60.1 µM (inactive)
